Measured values published in patent US10952945B2, “Formulations containing an extract of Echinacea and linoleic acid derivatives” (DR. AUGUST WOLFF GMBH & CO. KG ARZNEIMITTEL, priority 2015, dated 2021).

Molecular target: TRPV1 (Homo sapiens, UniProt Q8NER1)
Test: Determination of TRPV1 agonistic activity (MTT cell viability of 293 T-VR1 cells)
Description: 2×10^4 293 T-VR1 cells (or parentale 293T cells as control) are cultivated in 96-well microtiter plates (Costar, Cambridge, Mass.) in 200 μL Dulbecco's Modified Eagle's Medium (DMEM), which also contains 10% foetal calf serum and 1% antibiotics (penicillin/streptomycin). The cells are incubated for 6 h with the test substances or the controls (capsaicin, TRPV1 agonist (1 μM); capsazepine, TRPV1 antagonist (10 μM); or capsaicin (1 μM) and capsazepine (10 μM)). Then, cell viability is determined.
The cytotoxic effect of the test substances was determined using the MTT (3-[4,5-dimethylthiazol-2-yl]-2,5-diphenyltetrazolium bromide) assay method. For this, 50 μL of a solution of MTT in DMEM (5 mg/mL) were added to each well. These were then incubated in the dark for 4 h at 37° C. The reaction was stopped, the residue was removed and 100 μL DMSO were added to each well. Incubation continued for 10 min with gentle shaking. Then the absorption at 550 nm was measured with a TECAN GENios Pro Plate Reader (Tecan Group Ltd., Switzerland). […] The determination was performed in triplicate.

Sequence of TRPV1 (Q8NER1 whole entry, species assumed): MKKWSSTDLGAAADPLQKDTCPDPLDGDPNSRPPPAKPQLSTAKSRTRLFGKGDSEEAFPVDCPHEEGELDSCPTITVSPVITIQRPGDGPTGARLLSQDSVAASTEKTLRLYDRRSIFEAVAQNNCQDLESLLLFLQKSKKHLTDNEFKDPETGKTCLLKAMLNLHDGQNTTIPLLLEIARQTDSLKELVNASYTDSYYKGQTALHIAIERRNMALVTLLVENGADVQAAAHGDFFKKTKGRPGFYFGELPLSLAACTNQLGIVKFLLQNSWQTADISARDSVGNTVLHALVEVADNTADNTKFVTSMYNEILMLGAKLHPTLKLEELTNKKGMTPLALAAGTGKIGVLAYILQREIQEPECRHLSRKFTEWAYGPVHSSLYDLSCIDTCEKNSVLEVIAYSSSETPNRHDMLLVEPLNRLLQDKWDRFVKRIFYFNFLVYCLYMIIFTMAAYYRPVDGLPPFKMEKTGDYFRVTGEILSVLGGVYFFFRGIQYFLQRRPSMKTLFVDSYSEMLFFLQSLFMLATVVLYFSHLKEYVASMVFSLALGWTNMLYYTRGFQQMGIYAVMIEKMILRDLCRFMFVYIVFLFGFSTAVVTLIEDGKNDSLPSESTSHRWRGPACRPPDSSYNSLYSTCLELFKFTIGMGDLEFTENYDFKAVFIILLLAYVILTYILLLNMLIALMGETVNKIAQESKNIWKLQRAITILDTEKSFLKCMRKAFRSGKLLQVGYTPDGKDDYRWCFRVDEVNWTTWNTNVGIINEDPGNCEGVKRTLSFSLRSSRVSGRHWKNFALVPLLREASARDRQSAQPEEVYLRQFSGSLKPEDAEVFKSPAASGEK

| SMILES | cell viability (FIG. 1 experiment, capsaicin (1 μM) and capsazepine (10 μM) together) | cell viability (FIG. 2 experiment, capsaicin together with capsazepine) | cell viability (human, 6 h, 10 μM) | cell viability (FIG. 1 experiment, capsaicin 1 μM, 293 T-VR1 cells, 6 h, percentage of vehicle control) | cell viability (FIG. 2 experiment, capsaicin positive control) |
| --- | --- | --- | --- | --- | --- |
| Oc1cc2c(cc1O)CN(C(=S)NCCc1ccc(Cl)cc1)CCC2 [capsazepine] | 101.3% | 104.4% | 106.1% |  |  |
| COc1cc(CNC(=O)CCCC/C=C/C(C)C)ccc1O [capsaicin] |  |  |  | 54.9% | 70.6% |
